For orientation: IC50 means the concentration at which inhibition is half-maximal.

The test addresses T1, CCR1 (Homo sapiens, UniProt P32246).
T1 construct: host or cells: non-adherent cells
T1 sequence (P32246 1-355): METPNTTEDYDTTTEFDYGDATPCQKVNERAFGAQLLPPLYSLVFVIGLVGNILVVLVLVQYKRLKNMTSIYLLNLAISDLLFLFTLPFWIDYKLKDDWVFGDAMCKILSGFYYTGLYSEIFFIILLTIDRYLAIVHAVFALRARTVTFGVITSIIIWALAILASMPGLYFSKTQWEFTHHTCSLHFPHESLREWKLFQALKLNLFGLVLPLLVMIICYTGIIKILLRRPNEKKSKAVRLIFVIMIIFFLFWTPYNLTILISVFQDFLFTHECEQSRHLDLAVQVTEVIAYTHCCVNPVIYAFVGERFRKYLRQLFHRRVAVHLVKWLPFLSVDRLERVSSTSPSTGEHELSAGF
Description: functional cellular assay measuring calcium flux in response to MIP1α in CCR1-transfected cells (Method A or Method B). The following applies: cells stably expressing recombinant CCR1 and G-alpha-16; MIP-1alpha added at EC80; method (A: FLIPR TETRA, B: FDSS6000) not stated per compound. Format: cell-based. Here is the method: Compounds are assessed for the ability to block the interaction of CCR1 and its ligands in a functional cellular assay measuring calcium flux in response to MIP1α in CCR1-transfected cells.
Method A: Non-adherent cells purchased from Chemicon Corporation (HTS005C), stably expressing recombinant CCR1 and G-alpha-16 are grown in RPMI 1640 medium (Mediatech 10-080-CM) supplemented with 10% heat-inactivated FBS, 0.4 mg/mL Geneticin and penicillin/streptomycin. On the day of the assay, the cells are transferred to a beaker and dye-loaded in bulk using a Fluo-4 NW Calcium Assay Kit with probenecid (Invitrogen F36205) at 0.8E6 cells/mL for 1 hour at room temperature. After 1 hour, they are seeded in a 384-well tissue culture-treated plate at a density of 20,000 cells/well. Appropriately diluted test compound is added to the well to achieve a top concentration of 3,000 nM (diluted 3-fold with 10 doses total). The final concentration of DMSO is 1%. The buffer is HBSS (Invitrogen 14025) with 20 mM HEPES at pH 7.4. The cells are allowed to incubate 1 hour in the dark at room temperature. The plates are transferred to the FLIPR TETRA where MIP-1alpha in 1% BSA is added at the EC80 final concentration. Wells +/−MIP-1alpha containing diluted DMSO instead of compound serve as the controls. Intracellular calcium flux is recorded on the FLIPR TETRA, using excitation at 470/495 nm and emission at 515/575 nm. Data are analyzed using Activity Base software.
Method B: Non-adherent cells purchased from Chemicon Corporation (HTS005C), stably expressing recombinant CCR1 and G-alpha-16 are grown in RPMI 1640 medium (Mediatech 10-080-CM) supplemented with 10% FBS, 0.4 mg/mL Geneticin and penicillin/streptomycin. On the day of the assay, the cells are loaded with Calcium 4 dye (Molecular Devices R7448) with Probenecid (Invitrogen P346400) at 8E5 cells/mL for 1 hour at room temperature. After 1 hour, they are seeded in a 384-well tissue culture-treated plate at a density of 20,000 cells/well. Appropriately diluted test compound is added to the well to achieve a top concentration of 3,000 nM (diluted 4-fold with 10 doses total). The final concentration of DMSO is 1%. The buffer is HBSS (Invitrogen 14025) with 20 mM HEPES at pH 7.4. The cells incubate 30 minutes at 37 C and then 30 minutes at room temperature. The plates are transferred to the HAMAMATSU FDSS6000 where MIP-1alpha in 1% BSA is added at the EC80 final concentration. All plates must be read within 4 hours of the start of dye-loading. Wells +/−MIP-1alpha containing diluted DMSO instead of compound serve as the controls. Data are analyzed using Activity Base software.
On the technique in general: A change in cytosolic calcium serves as a functional read-out for many receptors and channels.
On to `CCC[C@H](NC(=O)c1cnn(-c2ccc(Cl)cc2)c1C)c1ccc(S(C)(=O)=O)nc1` (stereo in doubt) [1-(4-Chloro-phenyl)-5-methyl-1H-pyrazole-4-carboxylic acid [1-(6-methanesulfonyl-pyridin-3-yl)-butyl]-amide], for which the IC50 stood at 35 nM. On to `Cc1c(C(=O)N[C@@H](C)c2cccc3ccccc23)cnn1-c1ccc(Cl)c(Cl)c1` [1-(3,4-Dichloro-phenyl)-5-methyl-1H-pyrazole-4-carboxylic acid ((S)-1-naphthalen-1-yl-ethyl)-amide], for which the IC50 was found to be 54 nM. On to `CCCC(NC(=O)c1cnn(-c2ccc(Cl)c(Cl)c2)c1C)c1ccnc(Br)c1` (stereo not shown) [1-(3,4-Dichloro-phenyl)-5-methyl-1H-pyrazole-4-carboxylic acid [1-(2-bromo-pyridin-4-yl)-butyl]-amide], for which the IC50 turned out to be 0.6 nM. To `CCCC(NC(=O)c1cnn(-c2ccc(Cl)c(Cl)c2)c1C)c1ccnc(S(C)(=O)=O)c1` (stereo not shown) [1-(3,4-Dichloro-phenyl)-5-methyl-1H-pyrazole-4-carboxylic acid [1-(2-methanesulfonyl-pyridin-4-yl)-butyl]-amide] belongs 0.3 nM; to `CCCC(NC(=O)c1cnn(-c2ccc(Cl)c(Cl)c2)c1C)c1cncc(S(C)(=O)=O)c1` (stereo not shown) [1-(3,4-Dichloro-phenyl)-5-methyl-1H-pyrazole-4-carboxylic acid [1-(5-methanesulfonyl-pyridin-3-yl)-butyl]-amide], 1 nM; to `CCCC(NC(=O)c1cnn(-c2ccc(Cl)c(Cl)c2)c1C)c1ccc(S(C)(=O)=O)nc1` (stereo not shown) [1-(3,4-Dichloro-phenyl)-5-methyl-1H-pyrazole-4-carboxylic acid [1-(6-methanesulfonyl-pyridin-3-yl)-butyl]-amide], 5.3 nM. `C=CCC[C@H](NC(=O)c1cnn(-c2ccc(Cl)c(Cl)c2)c1C)c1cccc(Br)c1` [1-(3,4-Dichloro-phenyl)-5-methyl-1H-pyrazole-4-carboxylic acid [(S)-1-(3-bromo-phenyl)-pent-4-enyl]-amide]: the IC50 came to 41 nM.

`CC[C@H](NC(=O)c1cnn(-c2ccc(Cl)c(Cl)c2)c1C)c1cccc(Br)c1` [1-(3,4-Dichloro-phenyl)-5-methyl-1H-pyrazole-4-carboxylic acid [(S)-1-(3-bromo-phenyl)-propyl]-amide]: the IC50 turned out to be 16 nM. With `Cc1c(C(=O)N[C@@H](C)c2ccc(F)c(C(F)(F)F)c2)cnn1-c1ccc(Cl)c(Cl)c1` [1-(3,4-Dichloro-phenyl)-5-methyl-1H-pyrazole-4-carboxylic acid [(S)-1-(4-fluoro-3-trifluoromethyl-phenyl)-ethyl]-amide], the IC50 stood at 28 nM. In the case of `CCCC(NC(=O)c1cnn(-c2ccc(F)c(Cl)c2)c1C)c1cncc(S(C)(=O)=O)c1` (stereo not shown) [1-(3-Chloro-4-fluoro-phenyl)-5-methyl-1H-pyrazole-4-carboxylic acid [1-(5-methanesulfonyl-pyridin-3-yl)-butyl]-amide], the IC50 came out at 5.9 nM. In the case of `CCCC(NC(=O)c1cnn(-c2ccc(F)c(Cl)c2)c1C)c1ccc(S(C)(=O)=O)nc1` (stereo not shown) [1-(3-Chloro-4-fluoro-phenyl)-5-methyl-1H-pyrazole-4-carboxylic acid [1-(6-methanesulfonyl-pyridin-3-yl)-butyl]-amide], the IC50 was found to be 71 nM. Then `CCCC(NC(=O)c1cnn(-c2ccc(Br)cc2)c1C)c1cncc(S(C)(=O)=O)c1` (stereo not shown) [1-(4-Bromo-phenyl)-5-methyl-1H-pyrazole-4-carboxylic acid [1-(5-methanesulfonyl-pyridin-3-yl)-butyl]-amide], with 9.3 nM; and `CCCC(NC(=O)c1cnn(-c2ccc(Cl)c(F)c2)c1C)c1cncc(S(C)(=O)=O)c1` (stereo not shown) [1-(4-Chloro-3-fluoro-phenyl)-5-methyl-1H-pyrazole-4-carboxylic acid [1-(5-methanesulfonyl-pyridin-3-yl)-butyl]-amide], with 37 nM. With `CCCC(NC(=O)c1cnn(-c2ccc(Cl)c(F)c2)c1C)c1ccc(S(C)(=O)=O)nc1` (stereo not shown) [1-(4-Chloro-3-fluoro-phenyl)-5-methyl-1H-pyrazole-4-carboxylic acid [1-(6-methanesulfonyl-pyridin-3-yl)-butyl]-amide], the IC50 came to 91 nM. Take `CCC[C@H](NC(=O)c1cnn(-c2ccc(Cl)cc2)c1CO)c1cccc(Br)c1` [1-(4-Chloro-phenyl)-5-hydroxymethyl-1H-pyrazole-4-carboxylic acid [(S)-1-(3-bromo-phenyl)-butyl]-amide]: the IC50 was found to be 16 nM.

Take `CCC[C@H](NC(=O)c1cnn(-c2ccc(Cl)cc2)c1CO)c1cccc(C(F)(F)F)c1` [1-(4-Chloro-phenyl)-5-hydroxymethyl-1H-pyrazole-4-carboxylic acid [(S)-1-(3-trifluoromethyl-phenyl)-butyl]-amide]: the IC50 came to 6.5 nM. Consider `CCCC(NC(=O)c1cnn(-c2ccc(Cl)cc2)c1C)c1ccnc(Br)c1` (stereo not shown) [1-(4-Chloro-phenyl)-5-methyl-1H-pyrazole-4-carboxylic acid [1-(2-bromo-pyridin-4-yl)-butyl]-amide], for which the IC50 stood at 1.1 nM. Then `CCCC(NC(=O)c1cnn(-c2ccc(Cl)cc2)c1C)c1ccnc(S(=O)(=O)C2CC2)c1` (stereo not shown) [1-(4-Chloro-phenyl)-5-methyl-1H-pyrazole-4-carboxylic acid [1-(2-cyclopropanesulfonyl-pyridin-4-yl)-butyl]-amide], with 12 nM.

In the case of `CCCC(NC(=O)c1cnn(-c2ccc(Cl)cc2)c1C)c1ccnc(S(=O)(=O)N(C)C)c1` (stereo not shown) [1-(4-Chloro-phenyl)-5-methyl-1H-pyrazole-4-carboxylic acid [1-(2-dimethylsulfamoyl-pyridin-4-yl)-butyl]-amide], the IC50 worked out at 4.5 nM.

In the case of `CCCC(NC(=O)c1cnn(-c2ccc(Cl)cc2)c1C)c1ccnc(S(=O)(=O)CC)c1` (stereo not shown) [1-(4-Chloro-phenyl)-5-methyl-1H-pyrazole-4-carboxylic acid [1-(2-ethanesulfonyl-pyridin-4-yl)-butyl]-amide], the IC50 is 5.7 nM.

With `CCCC(NC(=O)c1cnn(-c2ccc(Cl)cc2)c1C)c1ccnc(S(C)(=O)=O)c1` (stereo not shown) [1-(4-Chloro-phenyl)-5-methyl-1H-pyrazole-4-carboxylic acid [1-(2-methanesulfonyl-pyridin-4-yl)-butyl]-amide], the IC50 was found to be 2.3 nM.

As to `CCCC(NC(=O)c1cnn(-c2ccc(Cl)cc2)c1C)c1ccnc(S(=O)(=O)NC)c1` (stereo not shown) [1-(4-Chloro-phenyl)-5-methyl-1H-pyrazole-4-carboxylic acid [1-(2-methylsulfamoyl-pyridin-4-yl)-butyl]-amide], the IC50 worked out at 2.9 nM. Then `CCCC(NC(=O)c1cnn(-c2ccc(Cl)cc2)c1C)c1ccnc(S(N)(=O)=O)c1` (stereo not shown) [1-(4-Chloro-phenyl)-5-methyl-1H-pyrazole-4-carboxylic acid [1-(2-sulfamoyl-pyridin-4-yl)-butyl]-amide], with 51 nM; and `CCCC(NC(=O)c1cnn(-c2ccc(Cl)cc2)c1C)c1cncc(Br)c1` (stereo not shown) [1-(4-Chloro-phenyl)-5-methyl-1H-pyrazole-4-carboxylic acid [1-(5-bromo-pyridin-3-yl)-butyl]-amide], with 4.1 nM; and `CCCC(NC(=O)c1cnn(-c2ccc(Cl)cc2)c1C)c1cncc(S(=O)(=O)C2CC2)c1` (stereo not shown) [1-(4-Chloro-phenyl)-5-methyl-1H-pyrazole-4-carboxylic acid [1-(5-cyclopropanesulfonyl-pyridin-3-yl)-butyl]-amide], with 85 nM.

The record behind these values is patent publication US8293917B2, “Pyrazole compounds as CCR1 antagonists” (Boehringer Ingelheim International GmbH, priority 2008, dated 2012).
